Assay results: US9447136B2, “Semisynthetic derivatives of Nystatin A1” (BLIRT S.A., priority 2012, dated 2016)
Read-outs that look alike come from different tables or passages of the source.

How the values were obtained:
[1] = tested on: Human erythrocytes; test: Hemotoxicity (hemolytic activity)
Procedure: The hemotoxicity determination were carried out by the serial dilutions method, according to the procedure described earlier (Ślisz, M., et al., E., J Antibiot 57: 669-678 (2004)). Human erythrocytes were suspensed in the solution of saline to obtain a cell density of suspension 2×10^7/ml. Suitable amounts of diluted solutions of compounds were added to the cell suspension in tubes and were incubated at 37° C. for 30 minutes and then centrifuged (1700×g, 10 min, 4° C.). The concentration of hemoglobin in supernatant after centrifugation of erythrocytes suspension were determined by measuring the absorbance at wavelength λ=540 nm (A540). The maximum level of hemolysis was obtained after incubation of cells suspension in the presence of 0.1% Tritone X-100 (control sample). […] From these graphs, the EH50 values were read which are the interpolated concentrations of compound, for which the A540 value is exactly 50% of the A540 value measured for the control sample.

[2] = tested on: Candida albicans ATCC 10231; test: Antifungal activity in vitro, serial dilution in RPMI 1640; format: cell-based; details: Table 2A, RPMI 1640, pH 7.0; for Antifungal activity Candida albicans ATCC 10231 IC50: A531 50% of control; for Antifungal activity Candida albicans ATCC 10231 MIC: A531 at most 20% of control
Procedure: (§1) For the determination of antifungal activity in vitro we used method of serial dilution in buffered medium RPMI 1640, pH 7.0, in a 96-wells microplates, according to the standard procedure (National Committee for Clinical Laboratory Standards. Reference method for broth dilution antifungal susceptibility testing of yeast, approved standard, 2nd ed. M27-A2 vol. 22 Wayne, Pa., 2002). The optical density of cells suspension was measured using a microplates reader (Victor^3, Perkin-Elmer) at the wavelength λ=531 nm (A531). On the basis of obtained results the diagrams of relation between A531 values and concentration of examined compound were made. From these graphs, the IC50 values were read, which were the interpolated concentrations of a tested compound, at which the A531 value was exactly 50% of the A531 value for the control sample. Moreover, MIC values, that are the lowest concentration of tested compound at which the A531 value were at most 20% of the A531 value measured for the control sample.

[3] = tested on: Candida krusei DSM 6128; test: as above; format: cell-based; details: Table 2A; RPMI 1640, pH 7.0
Procedure: as §1

[4] = tested on: Candida glabrata DSM 11226; test: as above; format: cell-based; details: Table 2A; RPMI 1640, pH 7.0
Procedure: as §1

[5] = tested on: Saccharomyces cerevisiae ATCC 9763; test: as above; format: cell-based; details: Table 2A; RPMI 1640, pH 7.0; A531 at most 20% of control
Procedure: as §1

[6] = tested on: Candida tropicalis KKP 334; test: as above; format: cell-based; details: Table 2A; RPMI 1640, pH 7.0
Procedure: as §1

Compound | % of hemolysis at the concentration 300 μg ml^−1 [1] | EH10 [1] | Antifungal activity Candida albicans ATCC 10231 IC50 [2] | Antifungal activity Candida albicans ATCC 10231 MIC [2] | Antifungal activity Candida krusei DSM 6128 MIC [3] | Antifungal activity Candida glabrata DSM 11226 MIC [4] | Antifungal activity Saccharomyces cerevisiae ATCC 9763 MIC [5] | Antifungal activity Candida tropicalis KKP 334 MIC [6] | Hemotoxicity BEH50 ([1]; human erythrocytes, 37° C., 30 minutes, concentration causing 50% hemolysis, maximum concentration 300 μg/ml) | % of hemolysis at the concentration 300 μg ml^−1 ([1]; human erythrocytes, 300 μg ml^−1) | EH10 ([1]; human erythrocytes, concentration causing 10% of hemolysis)
CC1C=CC=CCCC=CC=CC=CC=CC(OC2OC(C)C(O)C(NC(=O)C(N)COC(C)(C)C)C2O)CC2OC(O)(CC(O)CC(O)C(O)CCC(O)CC(O)CC(=O)OC(C)C(C)C1O)CC(O)C2C(=O)O [Compound N36, N-L-(O-tert-butyl)serylnystatin A1] | 8.24% | >300 µg/mL |  |  |  |  |  |  |  |  | 
CC1OC(O[C@H]2/C=C/C=C/C=C/C=C/CC/C=C/C=C/[C@H](C)[C@@H](O)[C@@H](C)[C@H](C)OC(=O)C[C@H](O)C[C@H](O)C[C@H](O)CC[C@@H](O)[C@H](O)CC3(O)C[C@H](O)[C@@H](C(=O)O)[C@H](C2)O3)C(O)C(NC2CC(=O)N(c3ccc(Br)cc3)C2=O)C1O (stereo partly drawn) [Compound N2, N—(N′-4-bromophenylsuccinimidyl)nystatin A1] |  |  | 4.99 µg/mL | 8 µg/mL | 16 µg/mL | 16 µg/mL | 8 µg/mL | 8 µg/mL |  |  | 
CCCN(CC1(O)OCC(O)C(O)C1O)C1C(O)C(C)OC(OC2C=CC=CC=CC=CCCC=CC=CC(C)C(O)C(C)C(C)OC(=O)CC(O)CC(O)CC(O)CCC(O)C(O)CC3(O)CC(O)C(C(=O)O)C(C2)O3)C1O (stereo not drawn) [Compound N27, N-fructosyl-N-n-propylnystatin A1] | 7.34% | >300 µg/mL |  |  |  |  |  |  |  |  | 
N—(N′-cyclohexylsuccinimidyl)nystatin A1 [Compound N5] |  |  | 5.77 µg/mL | 8 µg/mL | 16 µg/mL | 16 µg/mL | 8 µg/mL | 8 µg/mL |  |  | 
Cc1cccc(C)c1N1C(=O)CC(NC2C(O)C(C)OC(O[C@H]3/C=C/C=C/C=C/C=C/CC/C=C/C=C/[C@H](C)[C@@H](O)[C@@H](C)[C@H](C)OC(=O)C[C@H](O)C[C@H](O)C[C@H](O)CC[C@@H](O)[C@H](O)CC4(O)C[C@H](O)[C@@H](C(=O)O)[C@H](C3)O4)C2O)C1=O (stereo partly drawn) [Compound N4, N—(N′-2,6-dimethyl-phenylsuccinimidyl)nystatin A1] |  |  | 6.32 µg/mL | 8 µg/mL | 16 µg/mL | 16 µg/mL | 8 µg/mL | 8 µg/mL |  |  | 
CC1OC(O[C@H]2/C=C/C=C/C=C/C=C/CC/C=C/C=C/[C@H](C)[C@@H](O)[C@@H](C)[C@H](C)OC(=O)C[C@H](O)C[C@H](O)C[C@H](O)CC[C@@H](O)[C@H](O)CC3(O)C[C@H](O)[C@@H](C(=O)O)[C@H](C2)O3)C(O)C(NC(=O)[C@@H](N)CCC(=O)OC(C)(C)C)C1O (stereo partly drawn) [Compound N35, N-L-(O-tert-butyl)glutamylnystatin A1] |  |  | 6.36 µg/mL | 8 µg/mL | 16 µg/mL | 16 µg/mL | 8 µg/mL | 16 µg/mL |  |  | 
CC1OC(O[C@H]2/C=C/C=C/C=C/C=C/CC/C=C/C=C/[C@H](C)[C@@H](O)[C@@H](C)[C@H](C)OC(=O)C[C@H](O)C[C@H](O)C[C@H](O)CC[C@@H](O)[C@H](O)CC3(O)C[C@H](O)[C@@H](C(=O)O)[C@H](C2)O3)C(O)C(NC2CC(=O)N(Cc3ccccc3)C2=O)C1O (stereo partly drawn) [Compound N1, N—(N′-benzylsuccinimidyl)nystatin A1] |  |  | 5.36 µg/mL | 8 µg/mL | 32 µg/mL | 16 µg/mL | 8 µg/mL | 8 µg/mL |  |  | 
CC1OC(O[C@H]2/C=C/C=C/C=C/C=C/CC/C=C/C=C/[C@H](C)[C@@H](O)[C@@H](C)[C@H](C)OC(=O)C[C@H](O)C[C@H](O)C[C@H](O)CC[C@@H](O)[C@H](O)CC3(O)C[C@H](O)[C@@H](C(=O)O)[C@H](C2)O3)C(O)C(NC(=O)[C@H](N)Cc2cccnc2)C1O (stereo partly drawn) [Compound N42, N-D-β-(pyridin-3-yl)alanylnystatin A1] |  |  | 10.54 µg/mL | 16 µg/mL | 32 µg/mL | 32 µg/mL | 8 µg/mL | 16 µg/mL |  |  | 
C[C@@H]1[C@H](O)[C@@H](C)/C=C/C=C/CC/C=C/C=C/C=C/C=C/[C@H](O[C@@H]2O[C@H](C)[C@@H](O)[C@H](NC(=O)[C@H](N)COC(C)(C)C)[C@@H]2O)C[C@@H]2O[C@](O)(C[C@@H](O)C[C@@H](O)[C@H](O)CC[C@@H](O)C[C@@H](O)CC(=O)O[C@H]1C)C[C@H](O)[C@H]2C(=O)O [Compound N38, N-D-(O-tert-butyl)serylnystatin A1] |  |  | 5.95 µg/mL | 8 µg/mL | 16 µg/mL | 16 µg/mL | 8 µg/mL | 8 µg/mL |  |  | 
C[C@@H]1[C@H](O)[C@@H](C)/C=C/C=C/CC/C=C/C=C/C=C/C=C/[C@H](O[C@@H]2O[C@H](C)[C@@H](O)[C@H](NC(=O)[C@@H](N)Cc3ccc([N+](=O)[O-])cc3)[C@@H]2O)C[C@@H]2O[C@](O)(C[C@@H](O)C[C@@H](O)[C@H](O)CC[C@@H](O)C[C@@H](O)CC(=O)O[C@H]1C)C[C@H](O)[C@H]2C(=O)O [Compound N40, N-L-(4-nitrophenyl)alanylnystatin A1] |  |  | 5.56 µg/mL | 8 µg/mL | 16 µg/mL | 16 µg/mL | 8 µg/mL | 8 µg/mL | >300 µg/mL | 7.45% | >300 µg/mL
Cc1cc(C)c(N2C(=O)CC(N[C@@H]3[C@H](O)[C@H](O[C@H]4/C=C/C=C/C=C/C=C/CC/C=C/C=C/[C@H](C)[C@@H](O)[C@@H](C)[C@H](C)OC(=O)C[C@H](O)C[C@H](O)CC[C@@H](O)[C@H](O)C[C@H](O)C[C@]5(O)C[C@H](O)[C@@H](C(=O)O)[C@H](C4)O5)O[C@H](C)[C@H]3O)C2=O)c(C)c1 (stereo partly drawn) [Compound N3, N—(N′-2,4,6-trimethylphenylsuccinimidyl)nystatin A1] |  |  | 11.76 µg/mL | 16 µg/mL |  | 32 µg/mL | 8 µg/mL | 16 µg/mL |  |  | 
